Earlier results in patent US20170112823A1, “COMPOSITIONS AND METHODS TO TREAT […] RELATED CONDITIONS” (priority 2015, published 2017).

Conditions: frequency of side effect

SMILES | side effect: dizziness | side effect: dry mouth | side effect: headache | side effect: nausea | side effects: very commonly, dizziness and drowsiness
CNCC[C@H](Oc1cccc2ccccc12)c1cccs1 [Cymbalta, Duloxetine] | 19% | 23% | 20% | 34% | 
CC(C)C[C@H](CN)CC(=O)O [LYRICA, Pregabalin] |  |  |  |  | > 10%
